The source of these data is PubChem BioAssay AID256 (DTP/NCI, 2004).

Molecules are shown by their SMILES. Several values for one entry are separate records, joined by “and”; a condition that tells them apart may be missing. Equal entries are not always repeated. Inconclusive results and toxic doses are left out.

The test deals with CD2F1 mice, L1210 leukemia ip, survival T/C. As to the kind of experiment: NCI In Vivo Anticancer Drug Screen. Data for tumor model L1210 Leukemia (intraperitoneal) in CD2F1 (CDF1) mice. The settings on record: higher = longer survival. Summed up:
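Tumor-bearing mice (transplanted tumor) were split into treated and vehicle control groups, and the measured endpoint of each treated group was divided by that of its vehicle controls.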

The mark [1] stands for this setting: endpoint: mean survival time, dose: 25.0 mg/kg/injection, schedule: Q01DX009 (ip), vehicle: saline with Tween-80.
Setting [2] is: endpoint: mean survival time, dose: 100.0 mg/kg/injection, schedule: Q04DX003 (ip), vehicle: saline with Tween-80.
The mark [3] stands for this setting: endpoint: mean survival time, dose: 200.0 mg/kg/injection, schedule: Q04DX003 (ip), vehicle: saline with Tween-80.
[4] abbreviates: endpoint: mean survival time, dose: 400.0 mg/kg/injection, schedule: Q04DX003 (ip), vehicle: saline with Tween-80.
The mark [5] stands for this setting: endpoint: mean survival time, dose: 50.0 mg/kg/injection, schedule: Q01DX009 (ip), vehicle: Klucel (hydroxypropylcellulose) (HPC).
Setting [6] is: endpoint: mean survival time, dose: 100.0 mg/kg/injection, schedule: Q01DX009 (ip), vehicle: Klucel (hydroxypropylcellulose) (HPC).
Where [7] appears, read: endpoint: mean survival time, dose: 100.0 mg/kg/injection, schedule: Q01DX009 (ip), vehicle: saline with Tween-80.
The mark [8] stands for this setting: endpoint: mean survival time, dose: 100.0 mg/kg/injection, schedule: Q01DX001 (ip), vehicle: saline with Tween-80.
Where [9] appears, read: endpoint: mean survival time, dose: 100.0 mg/kg/injection, schedule: Q04DX002 (ip), vehicle: saline with Tween-80.
Where [10] appears, read: endpoint: mean survival time, dose: 200.0 mg/kg/injection, schedule: Q04DX002 (ip), vehicle: saline with Tween-80.
[11] abbreviates: endpoint: mean survival time, dose: 400.0 mg/kg/injection, schedule: Q04DX002 (ip), vehicle: saline with Tween-80.

For `CC1OC(OC2CC(O)(C(=O)CO)Cc3c(O)c4c(c(O)c32)C(=O)c2ccccc2C4=O)CC(N)C1O` (stereo not given), the T/C is 114 % of control (endpoint: mean survival time, dose: 0.03 mg/kg/injection, schedule: Q01DX009 (ip), vehicle: water); 151 % of control (endpoint: mean survival time, dose: 0.13 mg/kg/injection, schedule: Q01DX009 (ip), vehicle: water); 175 % of control (endpoint: mean survival time, dose: 0.25 mg/kg/injection, schedule: Q01DX009 (ip), vehicle: water); 102 % of control (endpoint: mean survival time, dose: 1.0 mg/kg/injection, schedule: Q01DX009 (ip), vehicle: water).

Turning to `O=S(=O)(F)c1cc(C[P+](c2ccccc2)(c2ccccc2)c2ccccc2)ccc1Cl`, the T/C is 104 % of control (endpoint: mean survival time, dose: 6.25 mg/kg/injection, schedule: Q04DX003 (ip), vehicle: saline with Tween-80); 104 % of control (endpoint: mean survival time, dose: 12.5 mg/kg/injection, schedule: Q04DX003 (ip), vehicle: saline with Tween-80); 116 % of control (endpoint: mean survival time, dose: 25.0 mg/kg/injection, schedule: Q04DX003 (ip), vehicle: saline with Tween-80).

As for `CCOC(=O)Nc1cc2c(c(N)n1)N=C(c1ccccc1)CN2`, the T/C is, setting by setting: (endpoint: median survival time, dose: 0.63 mg/kg/injection, schedule: Q01DX009 (ip), vehicle: saline with Tween-80) 118 % of control and 101 % of control; (endpoint: median survival time, dose: 0.75 mg/kg/injection, schedule: Q01DX009 (ip), vehicle: saline with Tween-80) 106 % of control.

For the compound `Cc1c2ccccc2c(C)c2c1ccc1ccccc12`, the T/C by setting is: under setting [1], 106 % of control; under setting [2], 106 % of control; (endpoint: mean survival time, dose: 125.0 mg/kg/injection, schedule: Q04DX003 (ip), vehicle: Klucel (hydroxypropylcellulose) (HPC)) 121 % of control.

In the case of `CC(=O)NC1CCCC(O)C1` (stereo not given), the T/C is 102 % of control (endpoint: mean survival time, dose: 100.0 mg/kg/injection, schedule: Q04DX003 (ip), vehicle: saline); 95 % of control (endpoint: mean survival time, dose: 200.0 mg/kg/injection, schedule: Q04DX003 (ip), vehicle: saline); 101 % of control (endpoint: mean survival time, dose: 400.0 mg/kg/injection, schedule: Q04DX003 (ip), vehicle: saline).

In the case of `CC(=O)OCC(OC(C)=O)C(OC(C)=O)C(OC(C)=O)C(S)S` (stereo not given), the T/C under setting [2] was 103 % of control, the T/C under setting [3] is 109 % of control and the T/C under setting [4] is 101 % of control.

Take `CCC1(O)C(=O)OCc2c1cc1n(c2=O)Cc2cc3ccc(C)cc3nc2-1` (stereo not given): where the note is “endpoint: median survival time, dose: 10.0 mg/kg/injection, schedule: Q04DX002 (ip), vehicle: saline with Tween-80”, the T/C is 108 % of control.

For `COc1ccc(C(=O)c2ccc(OC)cc2)cc1`, the T/C runs as follows: under setting [5], 100 % of control; under setting [6], 93 % of control; (endpoint: mean survival time, dose: 200.0 mg/kg/injection, schedule: Q01DX009 (ip), vehicle: Klucel (hydroxypropylcellulose) (HPC)) 86 % of control.

`CC(=O)OCC(OC(C)=O)C(OC(C)=O)C(/C=N\Nc1ccccc1)=N/Nc1ccccc1` (stereo not given): the T/C is, setting by setting: (endpoint: mean survival time, dose: 37.5 mg/kg/injection, schedule: Q01DX001 (ip), vehicle: saline with Tween-80) 92 % of control; (endpoint: mean survival time, dose: 75.0 mg/kg/injection, schedule: Q01DX001 (ip), vehicle: saline with Tween-80) 96 % of control; (endpoint: mean survival time, dose: 150.0 mg/kg/injection, schedule: Q01DX001 (ip), vehicle: saline with Tween-80) 91 % of control.

As to `O=C(O)C1CC(Br)C(Br)CC1C(=O)O` (stereo not given), the T/C reads like this: under setting [7], 95 % of control; (endpoint: mean survival time, dose: 200.0 mg/kg/injection, schedule: Q01DX009 (ip), vehicle: saline with Tween-80) 100 % of control; (endpoint: mean survival time, dose: 400.0 mg/kg/injection, schedule: Q01DX009 (ip), vehicle: saline with Tween-80) 91 % of control.

Take `O=C1C(=O)N(CNC(c2ccccc2)c2ccccc2)c2ccccc21`: the T/C was 101 % of control under setting [8] and 86 % of control (endpoint: mean survival time, dose: 400.0 mg/kg/injection, schedule: Q01DX001 (ip), vehicle: saline with Tween-80).

Take `N#Cc1cn(C2OC(CO)C(O)C2O)c2ncnc(NC(=O)c3ccccc3)c12` (stereo not given): the T/C was 95 % of control (endpoint: mean survival time, dose: 0.78 mg/kg/injection, schedule: Q01DX001 (ip), vehicle: suspension in saline); 106 % of control (endpoint: mean survival time, dose: 1.56 mg/kg/injection, schedule: Q01DX001 (ip), vehicle: suspension in saline); 110 % of control (endpoint: mean survival time, dose: 3.13 mg/kg/injection, schedule: Q01DX001 (ip), vehicle: suspension in saline); 108 % of control (endpoint: mean survival time, dose: 6.25 mg/kg/injection, schedule: Q01DX001 (ip), vehicle: suspension in saline); 111 % of control (endpoint: mean survival time, dose: 12.5 mg/kg/injection, schedule: Q01DX001 (ip), vehicle: suspension in saline).

In the case of `CSc1nc(NC2OCC(O)C(O)C2O)c(Br)c(=O)[nH]1` (stereo not given), the T/C was 101 % of control (endpoint: median survival time, dose: 12.5 mg/kg/injection, schedule: Q01DX005 (ip), vehicle: saline with Tween-80); 101 % of control (endpoint: median survival time, dose: 25.0 mg/kg/injection, schedule: Q01DX005 (ip), vehicle: saline with Tween-80); 101 % of control (endpoint: median survival time, dose: 50.0 mg/kg/injection, schedule: Q01DX005 (ip), vehicle: saline with Tween-80); 101 % of control (endpoint: median survival time, dose: 100.0 mg/kg/injection, schedule: Q01DX005 (ip), vehicle: saline with Tween-80); 101 % of control (endpoint: median survival time, dose: 200.0 mg/kg/injection, schedule: Q01DX005 (ip), vehicle: saline with Tween-80).

On to `CCN(CC)CCN1Cc2ccccc2C1`, for which the T/C runs as follows: under setting [1], 102 % of control; (endpoint: mean survival time, dose: 50.0 mg/kg/injection, schedule: Q01DX009 (ip), vehicle: saline with Tween-80) 94 % of control; under setting [7], 96 % of control and 107 % of control.

`Cc1ccc(S(=O)(=O)N(C)c2cc([N+](=O)[O-])ccc2Br)cc1`: the T/C is, setting by setting: under setting [9], 95 % of control; under setting [10], 103 % of control; under setting [11], 114 % of control.

As for `Cc1cccc(C)c1NC(=O)CCl`, the T/C reads like this: under setting [8], 103 % of control; (endpoint: mean survival time, dose: 200.0 mg/kg/injection, schedule: Q01DX001 (ip), vehicle: saline with Tween-80) 100 % of control.

Take `N#CCCc1c(O)ccc2ccccc12`: the T/C was 86 % of control under setting [2], 92 % of control under setting [3] and 86 % of control under setting [4].

Regarding `CC1CCC(C(C)C)C(NCCO)C1` (stereo not given), the T/C was 96 % of control (endpoint: mean survival time, dose: 18.8 mg/kg/injection, schedule: Q01DX009 (ip), vehicle: saline); 97 % of control (endpoint: mean survival time, dose: 37.5 mg/kg/injection, schedule: Q01DX009 (ip), vehicle: saline); 100 % of control (endpoint: mean survival time, dose: 75.0 mg/kg/injection, schedule: Q01DX009 (ip), vehicle: saline).

As to `CC/C=N/NC(=O)c1ccc[n+](C)c1`, the T/C under setting [9] is 100 % of control, the T/C under setting [10] was 92 % of control and the T/C under setting [11] is 96 % of control.

Regarding `CC1=C(/C=C/C(C)(O)CC2=NC(C)(C)CO2)C(C)(C)CCC1` (stereo not given), the T/C is, setting by setting: (endpoint: mean survival time, dose: 25.0 mg/kg/injection, schedule: Q04DX002 (ip), vehicle: saline with Tween-80) 101 % of control; (endpoint: mean survival time, dose: 50.0 mg/kg/injection, schedule: Q04DX002 (ip), vehicle: saline with Tween-80) 93 % of control; under setting [9], 93 % of control; under setting [2], 91 % of control; under setting [4], 86 % of control.

Regarding `O=C(O)CCC(O)C(=O)O.[NH-]C1CCCCC1[NH-].[Pt+2]` (stereo not given), the T/C by setting is: (endpoint: median survival time, dose: 3.12 mg/kg/injection, schedule: Q04DX003 (ip), vehicle: saline) 120 % of control and 110 % of control; (endpoint: median survival time, dose: 6.25 mg/kg/injection, schedule: Q04DX003 (ip), vehicle: saline) 120 % of control; (endpoint: median survival time, dose: 25.0 mg/kg/injection, schedule: Q04DX003 (ip), vehicle: saline) 158 % of control; (endpoint: median survival time, dose: 50.0 mg/kg/injection, schedule: Q04DX003 (ip), vehicle: saline) 170 % of control and 186 % of control; (endpoint: median survival time, dose: 100.0 mg/kg/injection, schedule: Q04DX003 (ip), vehicle: saline) 365 % of control.

`CC(=O)NCN(C)N=O`: the T/C is, setting by setting: (endpoint: mean survival time, dose: 100.0 mg/kg/injection, schedule: Q04DX002 (ip), vehicle: saline) 91 % of control; (endpoint: mean survival time, dose: 200.0 mg/kg/injection, schedule: Q04DX002 (ip), vehicle: saline) 91 % of control; (endpoint: mean survival time, dose: 400.0 mg/kg/injection, schedule: Q04DX002 (ip), vehicle: saline) 91 % of control.

With `c1cc(OCC2CO2)ccc1OCC1CO1` (stereo not given), the T/C runs as follows: (endpoint: mean survival time, dose: 25.0 mg/kg/injection, schedule: Q01DX009 (ip), vehicle: Klucel (hydroxypropylcellulose) (HPC)) 110 % of control; under setting [5], 107 % of control; under setting [6], 113 % of control.

As to `CCCCCCCCCCCCS(=O)(=O)O`, the T/C was 119 % of control under setting [2] and 119 % of control under setting [3].
